US11547703B2, “Substituted fused heteroaromatic tricyclic compounds as kinase inhibitors and the use thereof” (IMPACT THERAPEUTICS (SHANGHAI), INC, priority 2017, dated 2023)

Legend:
ATM enzyme (human) = ATM enzyme (human) (Homo sapiens, UniProt Q13315); experiment: ATM kinase assay (HTRF, phosphorylation of GST-cMyc-p53); type: biochemical
Procedure: ATM enzyme (human) was added to the reaction solution containing 30 nM GST-cMyc-p53 and 10 μM Mg/ATP, and then 50 times the concentration of the tested compound (or reference compound AZD0156) dissolved in 100% DMSO was added to the final concentration of 10 μM/1 μM/0.1 μM/0.01 μM. The reaction was initiated by the addition of a Mg/ATP mixture and incubation for 30 minutes at room temperature, the reaction was quenched by the addition of a stop solution containing EDTA. Finally, the detection buffer containing the d2-labeled anti-GST monoclonal antibody and the europium-labeled anti-phospho p53 (Ser15) antibody was added. The plate was then read in time resolved fluorescence mode and the homogeneous time resolved fluorescence (HTRF) signal was determined according to the equation: HTRF=10000×(Em665nm/Em620nm). Each compound sample was repeated in duplicate. The negative control contained all components except the ATM enzyme, and the positive control contained all components. All reactions were quenched by adding EDTA.
The compounds were serially diluted to 10 concentrations with 100% DMSO at the ratio of 1:3 and 1:10 (the last concentration was negative control of DMSO), then added to the ATM buffer and diluted to a final concentration of 10, 3, 1, 0.3, 0.1, 0.03, 0.01, 0.003, 0.001 and 0 μM, respectively. ATM kinase inhibition was detected by using the method described above. The curve equation for calculating IC50 value is as follows: […]
wherein, C is the concentration of compound and D is the slope factor. Table 2 summarizes the IC50 values of compounds inhibiting ATM kinase.

[1] = test system: human colon cancer cell SW620; experiment: MTT assay, growth of SW620 cells, compounds combined with CPT-11; type: cell-based; conditions: for IC50: 205 nM CPT-11, 5 days, MTT
Procedure: (§1) SW620 cells were digested by trypsinase, centrifuged at 800 rpm for 5 minutes, the supernatant was discarded, resuspended with fresh medium (RPMI 1640 medium+10% FBS) and counted. The cells were seeded into 96-well cell culture plate with appropriate cell density and incubated overnight in a 37° C. 5% CO2 incubator. The stock solutions of the tested compound and the reference compound AZD0156 were serially diluted to 8 concentrations by DMSO at the ratios of 1:3 and 1:10, respectively, and the last concentration was negative control of DMSO (0 μM, the final concentration of DMSO was 1%). 5 μL of each concentration was added to 120 μL of medium (25 times diluted) and mixed by shaking. The overnight cells were taken and the culture medium was removed, 195 μL of fresh medium containing 205 nM CPT-11 was added to each well, and 5 μL of diluted medium containing the corresponding concentration of the tested sample was added respectively, and the culture plate was then placed in the 5% CO2 cell culture incubator at 37° C. for 5 days. After removing the original solution, 100 μL of fresh serum-free DMEM medium containing MTT (0.5 mg/mL) was added to each well, the culture was continued. After 4 hours, the original solution was removed, 100 μL of DMSO was added into each well, the 96-well plates were shaken away from light for 10 minutes and placed in a multi-function reader to read the absorbance at the wavelength of 552/630/690 nm. GraphPad Prism 6.0 was used to analyze the data. The inhibitory activity of compounds on cell proliferation was plotted based on cell viability and compound concentration. The IC50 value was fitted by a sigmoidal dose response curve equation Y=100/(1+10^(Log C−Log IC50)), where C was the concentration of compound.

[2] = test system: human breast cancer cell MDA-MB-468; experiment: MTT assay, growth of MDA-MB-468 cells; type: cell-based; conditions: for IC50: single agent, 7 days, MTT
Procedure: as §1, with “MDA-MB-468 cells” for “SW620 cells”, “1:10, respectively:” for “1:10, respectively, and”, “medium (PRMI 1640+5% FBS)” for “medium containing 205 nM CPT-11”, “for 7 days (On the fourth day, the medium containing drugs was removed and fresh medium containing drugs was added for continuous cultivation).” for “for 5 days.”

[3] = 0.5 h, detected concentration 1 μm
[4] = Homo sapiens, MDA-MB-468, 168 h

Chain of ATM enzyme (human) (Q13315 whole entry): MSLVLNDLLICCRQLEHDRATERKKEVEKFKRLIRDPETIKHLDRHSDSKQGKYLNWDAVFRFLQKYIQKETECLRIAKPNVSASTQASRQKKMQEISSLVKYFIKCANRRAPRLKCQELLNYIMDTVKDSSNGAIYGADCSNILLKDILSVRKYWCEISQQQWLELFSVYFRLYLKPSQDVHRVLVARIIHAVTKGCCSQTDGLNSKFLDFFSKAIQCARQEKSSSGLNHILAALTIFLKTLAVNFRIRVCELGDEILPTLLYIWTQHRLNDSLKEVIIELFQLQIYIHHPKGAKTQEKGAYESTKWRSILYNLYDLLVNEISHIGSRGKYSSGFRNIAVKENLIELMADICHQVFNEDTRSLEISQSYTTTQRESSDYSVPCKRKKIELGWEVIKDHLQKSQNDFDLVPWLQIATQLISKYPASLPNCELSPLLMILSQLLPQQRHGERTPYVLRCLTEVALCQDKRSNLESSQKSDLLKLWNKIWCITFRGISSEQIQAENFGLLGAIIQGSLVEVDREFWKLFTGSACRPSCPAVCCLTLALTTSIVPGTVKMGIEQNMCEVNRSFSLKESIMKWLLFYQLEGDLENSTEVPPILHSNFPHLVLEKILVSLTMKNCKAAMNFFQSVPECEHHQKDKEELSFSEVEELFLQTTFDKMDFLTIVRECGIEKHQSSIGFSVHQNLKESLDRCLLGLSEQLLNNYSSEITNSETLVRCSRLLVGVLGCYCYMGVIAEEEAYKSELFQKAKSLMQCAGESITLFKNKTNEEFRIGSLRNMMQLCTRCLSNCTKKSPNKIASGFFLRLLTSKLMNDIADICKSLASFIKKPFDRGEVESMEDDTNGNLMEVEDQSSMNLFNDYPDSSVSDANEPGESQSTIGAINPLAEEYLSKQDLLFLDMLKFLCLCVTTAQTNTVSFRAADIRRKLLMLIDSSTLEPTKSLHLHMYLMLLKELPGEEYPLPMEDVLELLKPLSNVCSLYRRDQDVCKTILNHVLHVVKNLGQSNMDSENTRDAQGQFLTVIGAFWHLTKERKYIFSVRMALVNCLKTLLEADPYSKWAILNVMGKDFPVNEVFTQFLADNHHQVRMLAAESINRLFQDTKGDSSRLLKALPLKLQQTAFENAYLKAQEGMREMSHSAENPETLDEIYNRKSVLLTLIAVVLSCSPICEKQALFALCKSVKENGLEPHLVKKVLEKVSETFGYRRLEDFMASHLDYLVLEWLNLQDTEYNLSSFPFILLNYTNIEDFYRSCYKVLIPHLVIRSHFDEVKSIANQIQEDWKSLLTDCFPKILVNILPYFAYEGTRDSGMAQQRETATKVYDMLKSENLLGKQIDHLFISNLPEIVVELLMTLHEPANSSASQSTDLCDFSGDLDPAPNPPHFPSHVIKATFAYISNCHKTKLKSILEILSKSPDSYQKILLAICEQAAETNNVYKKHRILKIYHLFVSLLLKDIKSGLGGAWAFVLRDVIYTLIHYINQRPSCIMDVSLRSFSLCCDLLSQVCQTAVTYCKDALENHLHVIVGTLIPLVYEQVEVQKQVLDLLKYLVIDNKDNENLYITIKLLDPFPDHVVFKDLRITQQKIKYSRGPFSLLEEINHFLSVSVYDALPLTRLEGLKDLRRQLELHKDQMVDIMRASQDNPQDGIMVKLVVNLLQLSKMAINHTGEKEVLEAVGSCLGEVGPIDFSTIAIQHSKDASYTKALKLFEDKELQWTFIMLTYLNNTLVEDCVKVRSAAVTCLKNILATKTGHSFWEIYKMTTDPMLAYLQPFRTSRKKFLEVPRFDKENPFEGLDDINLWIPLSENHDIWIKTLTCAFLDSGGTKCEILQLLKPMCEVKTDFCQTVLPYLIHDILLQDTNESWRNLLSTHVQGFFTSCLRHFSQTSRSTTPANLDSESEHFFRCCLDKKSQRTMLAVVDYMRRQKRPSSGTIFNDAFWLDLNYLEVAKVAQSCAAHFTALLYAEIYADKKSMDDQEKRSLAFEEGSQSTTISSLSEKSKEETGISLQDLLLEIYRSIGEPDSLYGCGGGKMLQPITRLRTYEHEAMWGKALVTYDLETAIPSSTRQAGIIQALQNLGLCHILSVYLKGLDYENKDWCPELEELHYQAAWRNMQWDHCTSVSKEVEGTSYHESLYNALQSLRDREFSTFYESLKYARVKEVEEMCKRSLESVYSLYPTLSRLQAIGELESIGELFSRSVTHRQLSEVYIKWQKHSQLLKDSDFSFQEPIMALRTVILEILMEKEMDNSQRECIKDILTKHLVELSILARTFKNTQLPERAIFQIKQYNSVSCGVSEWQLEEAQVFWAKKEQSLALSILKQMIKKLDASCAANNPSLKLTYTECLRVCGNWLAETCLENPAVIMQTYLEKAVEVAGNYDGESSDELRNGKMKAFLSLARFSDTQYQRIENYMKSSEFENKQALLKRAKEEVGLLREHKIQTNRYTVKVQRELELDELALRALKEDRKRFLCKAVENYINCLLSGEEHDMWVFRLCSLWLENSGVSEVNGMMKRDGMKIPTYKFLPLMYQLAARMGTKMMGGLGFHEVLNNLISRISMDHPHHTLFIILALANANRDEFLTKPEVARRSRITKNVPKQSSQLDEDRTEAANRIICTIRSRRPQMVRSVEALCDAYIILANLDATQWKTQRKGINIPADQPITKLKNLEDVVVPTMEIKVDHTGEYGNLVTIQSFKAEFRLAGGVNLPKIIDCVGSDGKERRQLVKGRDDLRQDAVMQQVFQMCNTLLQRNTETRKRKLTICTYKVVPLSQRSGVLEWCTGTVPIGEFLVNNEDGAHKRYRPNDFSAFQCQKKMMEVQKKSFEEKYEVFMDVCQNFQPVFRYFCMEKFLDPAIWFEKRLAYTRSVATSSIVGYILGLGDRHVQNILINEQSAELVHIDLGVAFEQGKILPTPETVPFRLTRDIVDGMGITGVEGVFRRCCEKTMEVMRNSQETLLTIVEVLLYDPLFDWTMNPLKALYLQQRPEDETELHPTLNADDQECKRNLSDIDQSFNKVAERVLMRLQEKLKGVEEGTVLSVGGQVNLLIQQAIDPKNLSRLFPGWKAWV

inhibition at 1 µM (ATM enzyme (human); [3]) [%] | IC50 ([1]; Homo sapiens, SW-620, 120 h) [nM] | IC50 [2, 4] [nM] | Compound | other results
53 | > 10000 | > 10000 | CN1CCN(c2ccc(-c3cccc4nc5ccc(N6CCOCC6)cc5n34)cn2)CC1 [Example 16, 1-(6-(4-methylpiperazin-1-yl)pyridin-3-yl)-8-morpholinobenzo[4,5]imidazo[1,2-a]pyridine] | 
81 | 40.9 | 41.4 | CN(C)C1CCN(c2ccc(-c3ccc4nc5cccc(N6CCC(N(C)C)CC6)c5n4c3)cc2)CC1 [Example 56, N,N-dimethyl-1-(4-(9-(4-(dimethylamino)piperidin-1-yl)benzo[4,5]imidazo[1,2-a]pyridin-2-yl)phenyl)piperidin-4-amine] | growth of SW620 cell (in words) ([1]; MTT assay): inhibited the growth; growth of MDA-MB-468 cell (in words) ([2]; MTT assay): inhibited the growth
 | 1340 | 2800 | CN(C)CCCOc1ccc(-c2ccc3nc4cccc(C5=CCOCC5)c4n3c2)cn1 [Example 1, N,N-dimethyl-3-((5-(9-(3,6-dihydro-2H-pyran-4-yl)benzo[4,5]imidazo[1,2-a]pyridin-2-yl)pyridin-2-yl)oxy)propan-1-amine] | IC50 (ATM enzyme (human); 10 concentrations, 10 to 0.001 μM, read-out: IC50 (nM), in vitro inhibitory effect on ATM kinase): 239 nM; inhibition at 10 µM (ATM enzyme (human); 0.5 h, detected concentration 10 μm): 100%; effect on ATM kinase (in words) (ATM enzyme (human); ATM kinase (human) assay): good effect
99 | 1050 | 542 | CN1CCN(c2cccc3nc4ccc(-c5ccc(N6CCC(N(C)C)CC6)c(C(F)(F)F)c5)cn4c23)CC1 [Example 43, N,N-dimethyl-1-(2-(trifluoromethyl)-4-(9-(4-methylpiperazin-1-yl)benzo[4,5]imidazo[1,2-a]pyridin-2-yl)-phenyl)piperidin-4-amine] | 
100 | 166 | 60.5 | C[C@@H]1CN(c2cccc3nc4ccc(-c5ccc(N6CCC(N(C)C)CC6)c(Cl)c5)cn4c23)C[C@H](C)N1C [Example 47, N,N-dimethyl-1-(2-chloro-4-(9-((3S,5R)-3,4,5-trimethylpiperazin-1-yl)benzo[4,5]imidazo[1,2-a]pyridin-2-yl)phenyl)piperidin-4-amine] | 
100 | 152 | 55 | C[C@@H]1CN(c2cccc3nc4ccc(-c5ccc(N6CCC(N(C)C)CC6)c(F)c5)cn4c23)C[C@H](C)N1C [Example 46, N,N-dimethyl-1-(2-fluoro-4-(9-((3S,5R)-3,4,5-trimethylpiperazin-1-yl)benzo[4,5]imidazo[1,2-a]pyridin-2-yl)phenyl)piperidin-4-amine] | 
100 | > 1000 | > 1000 | C[C@@H]1CN(c2cccc3nc4ccc(-c5ccc(N6CCC(N(C)C)CC6)c(C(F)(F)F)c5)cn4c23)C[C@H](C)N1C [Example 48, N,N-dimethyl-1-(2-(trifluoromethyl)-4-(9-((3S,5R)-3,4,5-trimethylpiperazin-1-yl)benzo[4,5]imidazo[1,2-a]pyridin-2-yl)phenyl)piperidin-4-amine] | 
97 | > 500 | > 100000 | CN(C)CCCOc1ccc(-c2ccc3nc4cccc(N5CCN(C)CC5)c4n3c2)cc1C(F)(F)F [Example 44, N,N-dimethyl-3-(2-(trifluoromethyl)-4-(9-(4-methylpiperazin-1-yl)benzo[4,5]imidazo[1,2-a]pyridin-2-yl)phenoxy)propan-1-amine] | 
 |  |  | CN(C)CCCOc1ccc(-c2ccc3ncc4c(c3c2)n(C2CCOCC2)c(=O)n4C)cn1 [AZD0156, reference compound] | inhibition(%) of ATM kinase (ATM enzyme (human); detected concentration 1 μm): 100%; IC50 [1]: 8.5 nM; IC50 [2]: 10.6 nM
88 | 528 | 703 | CN(C)CCCOc1ccc(-c2ccc3nc4cccc(OC5CCN(C)CC5)c4n3c2)cn1 [Example 12, N,N-dimethyl-3-((5-(9-((1-methylpiperidin-4-yl)oxy)benzo[4,5]imidazo[1,2-a]pyridin-2-yl)pyridin-2-yl)oxy)propan-1-amine] | 
39 | 2420 | > 10000 | CN(C)CCCOc1ccc(-c2ccc3nc4cccc(NC5CCN(C)CC5)c4n3c2)cn1 [Example 15, N,N-dimethyl-3-((5-(9-(1-methylpiperidin-4-ylamino)benzo[4,5]imidazo[1,2-a]pyridin-2-yl)pyridin-2-yl)oxy)propan-1-amine] | 
99 | 434 | 25.1 | C[C@@H]1CN(c2cccc3nc4ccc(-c5ccc(OCCCN(C)C)nc5)cn4c23)C[C@H](C)N1C [Example 8, N,N-dimethyl-3-((5-(9-((3S,5R)-3,4,5-trimethylpiperazin-1-yl)benzo[4,5]imidazo[1,2-a]pyridin-2-yl)pyridin-2-yl)oxy)propan-1-amine] | 
100 | > 500 | 322 | C[C@@H]1CN(c2cccc3nc4ccc(-c5ccc(N6CCC(N(C)C)CC6)cc5)cn4c23)C[C@H](C)N1C [Example 45, N,N-dimethyl-1-(4-(9-((3S,5R)-3,4,5-trimethylpiperazin-1-yl)benzo[4,5]imidazo[1,2-a]pyridin-2-yl)phenyl)piperidin-4-amine] | 
37 | 3250 | 2620 | C[C@@H]1CN(c2ccc(-c3cccc4nc5ccc(N6CCOCC6)cc5n34)cn2)C[C@H](C)N1C [Example 17, 1-(6-((3S,5R)-3,4,5-trimethylpiperazin-1-yl)pyridin-3-yl)-8-morpholinobenzo[4,5]imidazo[1,2-a]pyridine] | 
